Earlier results as cited in patent US11376263B2, “Cyproterone acetate compositions and uses thereof” (FORTRESS BIOTECH, INC., priority 2020, dated 2022).

How the values were obtained:
[1] = daily administration

| SMILES | AUC and Cmax in obese women versus normal weight women (obese vs normal weight women) | mean oral bioavailability (oral, large inter- and intraindividual variability) | time to CPA steady state [1] |
| --- | --- | --- | --- |
| C#C[C@]1(O)CC[C@H]2[C@@H]3CCc4cc(O)ccc4[C@H]3CC[C@@]21C [EE, ethinylestradiol] | lower | approximately 45% |  |
| CC(=O)O[C@]1(C(C)=O)CC[C@H]2[C@@H]3C=C(Cl)C4=CC(=O)[C@@H]5C[C@@H]5[C@]4(C)[C@H]3CC[C@@]21C [CPA, cyproterone acetate] |  |  | approximately 16 days |
